Three compounds from patent EP1770089A1, “Pyranodibenzofuran derivatives with antifungal and antibacterial activity” (priority 2005, dated 2007) can be followed below.

Test [1] concerns M. tuberculosis INH resistant (2003/1762). The test can be described thus: microbe, parasite or virus in culture. The conditions noted are these: Mycobacterium tuberculosis. Type of test: cell-based.
In test [2] the test system is M. tuberculosis RIF resistant (2004/0499). The test can be described thus: microbe, parasite or virus in culture. The class given is cell-based. The conditions noted are these: Mycobacterium tuberculosis.

In brackets after ≈: the same amount, converted by molar mass.

In the case of `CC1(C)C=Cc2c(ccc3oc4ccccc4c23)O1` [Compound 9, 3,3-dimethyl-3H-benzofuro[3,2-f][1]benzopyran], the MIC99 in test [1] and in test [2] was 5 µg/mL (≈ 20 µM) throughout.

Consider `CC1(C)CCc2c(ccc3oc4ccccc4c23)O1` [Compound 16, 1,2-dihydro-3,3-dimethyl-3H-benzofuro[3,2-f][1]benzopyran], for which the MIC99 in test [1] and in test [2] was 1 µg/mL (≈ 3.96 µM) in each case.

For the compound `NNC(=O)c1ccncc1` [INH, isoniazid, reference compound], the results for the MIC99 in test [1] and in test [2] were 5 µg/mL (≈ 36.5 µM) and 0.1 µg/mL (≈ 0.729 µM), respectively.
